PubChem BioAssay (NCI)
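Cultured in 96-well plates, cells were exposed to test compound for 48 hours across five concentrations. The concentration for 50% growth inhibition is given as GI50. TGI: total growth inhibition.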

Legend:
Experiment in all cases: NCI anticancer screen, dose series, 48 h
NCI-H460 lung = system: NCI-H460 lung
SR leukemia = system: SR leukemia
SNB-19 CNS = system: SNB-19 CNS
NCI-H226 lung = system: NCI-H226 lung
SK-MEL-5 melanoma = system: SK-MEL-5 melanoma
RXF 393 renal = system: RXF 393 renal
NCI-H23 lung = system: NCI-H23 lung
NCI-H522 lung = system: NCI-H522 lung
EKVX NSCLC = system: EKVX NSCLC
HCT-15 colon = system: HCT-15 colon

SMILES	TGI (NCI-H460 lung) [µM]	TGI (SR leukemia) [µM]	TGI (SNB-19 CNS) [µM]	TGI (NCI-H226 lung) [µM]	TGI (SK-MEL-5 melanoma) [µM]	TGI (RXF 393 renal) [µM]	TGI (NCI-H23 lung) [µM]	TGI (NCI-H522 lung) [µM]	TGI (EKVX NSCLC) [µM]	TGI (HCT-15 colon) [µM]	GI50 (NCI-H460 lung) [µM]	GI50 (SR leukemia) [µM]	GI50 (SNB-19 CNS) [µM]	GI50 (NCI-H226 lung) [µM]	GI50 (SK-MEL-5 melanoma) [µM]	GI50 (RXF 393 renal) [µM]	GI50 (NCI-H23 lung) [µM]	GI50 (EKVX NSCLC) [µM]	GI50 (HCT-15 colon) [µM]
C/C(=N\O)c1cccc[n+]1Cc1ccccc1	> 100	> 100	> 100	> 100	> 100	> 100	> 100	> 100	> 100	> 100	–	–	–	–	–	–	–	–	–
CC(Oc1ccccc1)C(=O)NNC(=O)OC(C)(C)C (stereo not given)	> 100	> 100	> 100	> 100	> 100	> 100	> 100	> 100	> 100	> 100	–	–	–	–	–	–	–	–	–
O=C(NO)NCCCl	> 100	> 100	> 100	> 100	> 100	> 100	> 100	> 100	> 100	> 100	–	–	–	–	–	–	–	–	–
Br[C@@H]1[C@H]2c3nc4ccccc4nc3[C@@H]1C[C@H]2Br	> 100	> 100	> 100	86.2	69.5	94.6	> 100	> 100	> 100	> 100	–	–	–	–	–	–	–	–	–
O=c1c(Cc2ccc(Cl)cc2)nnc2sc(-c3ccc(-c4ccc(Cl)cc4Cl)o3)nn12	> 100	–	> 100	> 100	> 100	> 100	> 100	> 100	> 100	> 100	–	–	–	–	–	–	–	–	–
C/C(=C/CC[C@]1(CO)CC[C@]2(C)[C@H](CC[C@@H]3[C@@]4(C)CC[C@H](OC5OC(CO)C(O)C(O)C5OC5OC(CO)C(O)C(O)C5O)C(C)(C)[C@@H]4CC[C@]32C)[C@H]1O)CO (stereo not given in full)	> 100	> 100	> 100	> 100	> 100	> 100	> 100	> 100	> 100	> 100	–	–	–	–	–	–	–	–	–
CSc1nc(N)c2c(-c3ccccc3)c3c(nc2n1)CCCC3	> 100	> 100	> 100	–	> 100	94.2	> 100	–	> 100	> 100	–	–	–	–	–	–	–	–	–
CC(C)C1=CC(=O)[C@@](C)(C2[C@H](O)C[C@@]3(C)[C@@H]4CC=C5[C@@H](CC[C@@H](OC6OCC(O)C(O)C6OC6OC(C)C(O)C(O)C6O)C5(C)C)[C@]4(C)C(=O)C[C@]23C)O1 (stereo not given in full)	> 100	–	> 100	> 100	> 100	> 100	> 100	> 100	> 100	> 100	–	–	–	–	–	–	–	–	–
C=C1C(=O)O[C@H]2C[C@@H]1[C@@H](O)[C@H](O)[C@@H](C)CCCC(C)=CCC[C@@]2(C)O	54.1	> 100	> 100	–	48.4	74.1	42.7	33.9	> 100	> 100	–	–	–	–	–	–	–	–	–
COc1cc2c(cc1OC)C(=O)/C(=C/c1cc(C)cc(C)c1)C2	5.1	–	> 89.1	0.617	0.932	0.604	> 68	> 46.8	> 100	> 47.8	–	–	–	–	–	–	–	–	–
O=c1[nH]c(=O)n(COCc2ccccc2)cc1Nc1ccc(Br)cc1	> 100	> 100	> 100	> 100	> 100	> 100	> 100	–	> 100	> 100	–	–	–	–	–	–	–	–	–
C=C(Cl)C(Cl)(CCl)CCC(Br)C(C)(C)Br (stereo not given)	–	> 10	> 10	> 10	> 10	> 10	> 10	> 10	> 10	> 10	–	–	–	–	–	–	–	–	–
CCC(C)C1=C(O)[N+]2([O-])Oc3ccc(-c4c(O)c(O)c(-c5ccc(OC(C)=O)cc5)c(OC(C)=O)c4OC(C)=O)cc3OC2(C(C)CC)C(=O)N1O (stereo not given)	> 50	> 50	> 50	–	> 50	> 50	> 50	> 50	> 50	> 50	–	–	–	–	–	–	–	–	–
COc1cc(-c2c3c(cc4c2OCO4)[C@@H](Nc2ccc(-c4ccc(-c5ccc(N[C@@H]6c7cc8c(cc7C(c7cc(OC)c(O)c(OC)c7)[C@H]7C(=O)OC[C@H]67)OCO8)cc5)cc4)cc2)[C@H]2COC(=O)[C@@H]2C3)cc(OC)c1O (stereo not given in full)	10.7	–	12.5	6.31	7.58	–	20.7	–	25.2	4.79	–	–	–	–	–	–	–	–	–
COc1ccccc1C1(c2c(OC)c(=O)c2=O)SCCCS1	> 100	–	> 100	> 100	> 100	> 100	> 100	> 100	> 100	> 100	–	–	–	–	–	–	–	–	–
O=C1CSC(c2cccc(Cl)c2)N1c1ccc(-c2ccc(-n3c(-c4ccccc4)nc4ccccc4c3=O)cc2)cc1 (stereo not given)	> 100	> 100	> 100	> 100	84.4	–	> 100	> 100	> 100	> 100	–	–	–	–	–	–	–	–	–
CCCCCCCCCCCCCC[n+]1ccc(C)cc1	2.23	2.67	4.02	5.59	1.81	2.35	2.51	–	1.42	22.4	0.994	0.581	1.46	0.915	0.548	1.05	0.504	0.296	4.01
C[C@]12CC(c3ccccc3O1)C(C(=O)Nc1nc(C34CC5CC(CC(C5)C3)C4)cs1)C(=O)N2 (stereo not given in full)	> 100	> 100	> 100	> 100	> 100	> 100	> 100	–	> 100	> 100	–	–	–	–	–	–	–	–	–
Clc1ccc(C[P+](c2ccccc2)(c2ccccc2)c2ccccc2)cc1Cl	12.8	> 100	10.6	13.1	2.78	–	10.4	10.3	–	44.5	–	–	–	–	–	–	–	–	–
O=C1CSC(c2ccc(Cl)cc2Cl)N1c1ccc(Oc2ccc(Cl)cc2)c(Cl)c1 (stereo not given)	84.4	42.8	> 100	> 100	43.6	–	69.6	31.5	74	66.4	–	–	–	–	–	–	–	–	–
